Measured values: US8840904B2, “Compositions and methods for vaccinating against HSV-2” (priority 2006, dated 2014)
pIC50: −log10 of the molar value. No end group written: not given here.

Experiments:
recombinant HLA B*0702 = recombinant HLA B*0702 (Homo sapiens, UniProt P01889); assay: biochemical; assay type: binding
[1] = tested on: CD8^+ T-cells specific for the “majority”; assay: Cross-reactivity of CD8+ T-cells with UL49 AA 49-57 variants; assay type: cell-based, human

Row | Sequence | pIC50 (recombinant HLA B*0702) | cross-reactivity of majority-specific CD8^+ T-cells [1]
1 | RPRGEVREFL | > 8.70 | 
2 | RPRGKVRFL |  | not cross-reactive
